# Where “and” joins values, the source holds several entries; their conditions need not be identical. Equal entries are not always repeated.
# Experiments:
# [1] = Flow time and flowability, conical flow funnel, 2.9.16 Method Ph. Eur.; assay type: physicochemical; details: 100 g, time for whole sample to flow out of the funnel, two samples each; hydrochloride
# Description: The flowability of granular magnesium L-aspartate hydrochloride prepared by the process according to the invention was compared with a finely powdered magnesium L-aspartate hydrochloride prepared by a standard process (disclosed in DE 32 38 118 A1). The test arrangement consisted of a conical flow funnel with a height of 22.5 cm, an upper internal diameter of 7.3 cm and a lower internal diameter of 8.2 mm. The test was carried out by the 2.9.16 Method, Ph. Eur., 4th edition, main volume 2002, as follows. 100 g portions of material were put into the funnel. Opening of the funnel orifice was followed by assessment of the flowability, and the time for the whole sample to flow out of the funnel was determined. Two samples were measured in each case.
# [2] = Water uptake capacity or hygroscopicity, desiccator at 75% relative humidity; assay type: physicochemical; details: for percentage increase in weight: hydrochloride
# From the text: The hygroscopicity of granular magnesium L-aspartate hydrochloride prepared by the process according to the invention was compared with a finely powdered magnesium L-aspartate hydrochloride prepared by a standard process (disclosed in DE 32 38 118 A1). The test arrangement consisted of a desiccator which was adjusted to a relative humidity of 75% with a saturated sodium chloride solution. In each case a defined amount of sample was weighed out and the sample dish was placed in the desiccator. The percentage increase in weight of the weighed amount was determined after 2, 4, 5 and 20 hours.
# [3] = Dissolving properties, time until dissolution complete in water; assay type: physicochemical; details: 10 g in 250 ml of water, stirring 20 revolutions per min; hydrochloride
# Description: The dissolving properties of granular magnesium L-aspartate hydrochloride prepared by the process according to the invention were compared with a finely powdered magnesium L-aspartate hydrochloride prepared by a standard process (disclosed in DE 32 38 118 A1). The test arrangement consisted of a glass beaker with stirring bar which was adjusted to 20 revolutions per min. 250 ml of water were introduced and then 10 g of test material were added with the stirrer motor running. The time until dissolution was complete was measured.
# [4] = Particle size distribution, comparative sieve analysis (Hosokawa Alpine air jet sieve); assay type: physicochemical
# From the text: The particle size distribution of granular magnesium L-aspartate hydrochloride prepared by the process according to the invention was compared with a finely powdered magnesium L-aspartate hydrochloride prepared by a standard process (disclosed in DE 32 38 118 A1).
# [5] = Particle size distribution of the final product of Example 1; assay type: physicochemical
# [6] = Apparent volume of the final product; assay type: physicochemical
# Description: A product with a very favourable apparent volume can be achieved in the process according to the invention for preparing the granular hydrohalide of the complex compound of relevance here. The apparent volume [volume of the uncompressed product (ml)/100 g of the product] is preferably in a range from 150 to 180 ml/100 g, with a particularly preferred apparent volume being about 170 ml/100 g.
# [7] = background statement; cited from earlier work
# [8] = listed as granular magnesium L-aspartate hydrochloride, hydrochloride
# [9] = sieve 63.0 μm, listed as process according to the present invention, hydrochloride
# [10] = sieve 90.0 μm, listed as process according to the present invention, hydrochloride
# [11] = sieve 150.0 μm, listed as process according to the present invention, hydrochloride
# [12] = listed as finely powdered magnesium L-aspartate hydrochloride, hydrochloride
# [13] = sieve 63.0 μm, listed as standard process, hydrochloride
# [14] = sieve 90.0 μm, listed as standard process, hydrochloride
# [15] = sieve 150.0 μm, listed as standard process, hydrochloride
smiles,measurement,setting,value
"Cl.N[C@@H](CC(=O)[O-])C(=O)[O-].[Mg+2] [According to the invention, magnesium L-aspartate hydrochloride]",Flow time,[1],10 s
same,hygroscopicity compared with a finely powdered product according to the prior art,[2]; 2 to 20 hours,distinctly reduced
same,percentage increase in weight,[2]; testing time 2 h,0.18% and 0.16%
same,percentage increase in weight,[2]; testing time 4 h,0.33% and 0.30%
same,percentage increase in weight,[2]; testing time 5 h,0.43% and 0.40%
same,percentage increase in weight,[2]; testing time 20 h,1.74% and 1.63%
same,Dissolving time,[3],3 min and 2 min
same,average particle size (d50),[4]; [8],250.8 μm
same,maximum particle size (dmax),[4]; [8],448.7 μm
same,minimum particle size (dmin),[4]; [8],48.0 μm
same,1 − Q,[4]; sieve 0 μm (receiver),100.0 %-R
same,Q,[4]; sieve 0 μm (receiver),0.0 %-D
same,q,"[4]; sieve 0 μm (receiver), listed as process according to the present invention, hydrochloride",0.2 %-B
same,1 − Q,[4]; [9],99.8 %-R
same,Q,[4]; [9],0.2 %-D
same,q,[4]; [9],0.6 %-B
same,1 − Q,[4]; [10],99.2 %-R
same,Q,[4]; [10],0.8 %-D
same,q,[4]; [10],10.2 %-B
same,1 − Q,[4]; [11],89.0 %-R
same,Q,[4]; [11],11.0 %-D
same,q,[4]; [11],61.4 %-B
same,1 − Q,[4]; sieve 212.0 μm,27.6 %-R
same,Q,[4]; sieve 212.0 μm,72.4 %-D
same,q,[4]; sieve 212.0 μm,18.4 %-B
same,1 − Q,[4]; sieve 315.0 μm,9.2 %-R
same,Q,[4]; sieve 315.0 μm,90.8 %-D
same,q,[4]; sieve 315.0 μm,5.4 %-B
same,1 − Q,[4]; sieve 400.0 μm,3.8 %-R
same,Q,[4]; sieve 400.0 μm,96.2 %-D
same,q,[4]; sieve 400.0 μm,3.0 %-B
same,1 − Q,[4]; sieve 500.0 μm,0.8 %-R
same,Q,[4]; sieve 500.0 μm,99.2 %-D
same,q,[4]; sieve 500.0 μm,0.8 %-B
"Cl.N[C@@H](CC(=O)[O-])C(=O)[O-].[Mg+2] [Example 1, magnesium L-aspartate hydrochloride]","particle size distribution, fraction of particles",[5]; 100-140 μm,19.48%
same,"particle size distribution, fraction of particles",[5]; 140-250 μm,57.84%
same,"particle size distribution, fraction of particles",[5]; 250-315 μm,10.81%
same,"particle size distribution, fraction of particles",[5]; 315-400 μm,4.78%
same,"particle size distribution, fraction of particles",[5]; 400-500 μm,0.90%
same,"particle size distribution, fraction of particles",[5]; <100 μm,6.19%
same,apparent volume [volume of the uncompressed product (ml)/100 g of the product],[6],170 ml/100 g
Cl.N[C@@H](CC(=O)[O-])C(=O)[O-].[Mg+2] [Magnesium L-aspartate hydrochloride],humidity at which the substance liquefies,[7],more than 50%
"Cl.N[C@@H](CC(=O)[O-])C(=O)[O-].[Mg+2] [Standard, magnesium L-aspartate hydrochloride, reference compound]",percentage increase in weight,[2]; testing time 2 h,0.35% and 0.30%
same,percentage increase in weight,[2]; testing time 4 h,0.63% and 0.55%
same,percentage increase in weight,[2]; testing time 5 h,0.72% and 0.71%
same,percentage increase in weight,[2]; testing time 20 h,3.06% and 2.70%
same,Dissolving time,[3],7 min
same,average particle size (d50),[4]; [12],54.9 μm
same,maximum particle size (dmax),[4]; [12],260.0 μm
same,minimum particle size (dmin),[4]; [12],0.7 μm
same,1 − Q,[4]; sieve 0 μm (receiver),100.0 %-R
same,Q,[4]; sieve 0 μm (receiver),0.0 %-D
same,q,"[4]; sieve 0 μm (receiver), listed as standard process, hydrochloride",55.4 %-B
same,1 − Q,[4]; [13],44.6 %-R
same,Q,[4]; [13],55.4 %-D
same,q,[4]; [13],23.8 %-B
same,1 − Q,[4]; [14],20.8 %-R
same,Q,[4]; [14],79.2 %-D
same,q,[4]; [14],15.6 %-B
same,1 − Q,[4]; [15],5.2 %-R
same,Q,[4]; [15],94.8 %-D
same,q,[4]; [15],5.2 %-B

# Source: patent US7523563B2, “Process for preparing certain hydrohalide metal complex compounds having a specific coarse structure” (Verla-Pharm Arzneimittelfabrik Apotheker H.J.v. Ehrlich …, priority 2005, dated 2009)
